The data set is described as follows: photoluminescence quantum yield (fraction); solvent given as SMILES.

Regarding `Cc1ccc(C#Cc2ccc3nc4ccc(C#Cc5ccc(C)cc5)cn4c(=O)c3c2)cc1`, the photoluminescence quantum yield (in ClCCl) was 0.43.

`Nc1cc2nc3cc(Cl)c(Cl)cc3nc2cc1N` displayed a photoluminescence quantum yield (in CCO) of 0.1.

The compound `CCC12C(=C3C(=C4c5ccc(-c6ccccc6)cc5S(=O)(=O)C41CC)C(F)(F)C(F)(F)C3(F)F)c1ccc(-c3ccccc3)cc1S2(=O)=O` (configuration not stated) gave a photoluminescence quantum yield (in C1COCCO1) of 0.87.

Take `N#Cc1ccc(/C=C/c2ccc3ccc4cccc5ccc2c3c45)cc1`: the photoluminescence quantum yield (in CC1CCCCC1) came out at 0.8; the photoluminescence quantum yield (in CC#N) came to 0.26; the photoluminescence quantum yield (in CO) stood at 0.26; the photoluminescence quantum yield (in Cc1ccccc1) came out at 0.79; the photoluminescence quantum yield (in ClC(Cl)Cl) was 0.3.

Turning to `CN(C)c1ccc(/C=C/c2nc3cc(Br)ccc3nc2-c2ccccc2)cc1`, the photoluminescence quantum yield stood at 0.14 (in C1COCCO1), 0.01 (in CC#N) and 0.17 (in ClCCl). `CCn1c2ccccc2c2cc3c(cc21)c1ccccc1n3CC` registered a photoluminescence quantum yield (in ClC(Cl)Cl) of 0.13.

As to `O=c1oc2cccc3c4cccc5ccc6c7ccccc7c1c(c23)c6c54`, the photoluminescence quantum yield (in C1CCOC1) worked out at 0.287.

With `Cc1nc2cc(/C=C/c3ccc(N(C)C)cc3)ccc2nc1-c1ccccc1`, the photoluminescence quantum yield reads like this: (in C1COCCO1) 0.29; (in CC#N) 0.01; (in ClCCl) 0.09. `C/C(=C\c1ccc(C)cc1)c1nc2ccccc2s1`: the photoluminescence quantum yield by setting is: (in C1CCCCC1) 0.003; (in CO) 0.001.

Compound `O=C(c1ccc(-n2c3ccc(-c4ccccc4)cc3c3cc(-c4ccccc4)ccc32)cc1)c1ccc(-n2c3ccc(-c4ccccc4)cc3c3cc(-c4ccccc4)ccc32)cc1` came in with a photoluminescence quantum yield (in Cc1ccccc1) of 0.153. `Cc1cc(C)c(B(c2ccsc2-c2sccc2P(=O)(c2ccccc2)c2ccccc2)c2c(C)cc(C)cc2C)c(C)c1` returned a photoluminescence quantum yield (in CO) of 0.52.

Regarding `CCn1c2ccccc2c2cc(C#Cc3cc(C#Cc4ccc5c(c4)c4ccccc4n5CC)nc(S(C)(=O)=O)n3)ccc21`, the photoluminescence quantum yield runs as follows: (in C1CCOC1) 0.74; (in CCOC(C)=O) 0.75; (in CN(C)C=O) 0.59; (in Cc1ccccc1) 0.81; (in ClCCl) 0.46. `C[Si](C)(C)C#Cc1cc2ccc3cc(C#C[Si](C)(C)C)cc4ccc(c1)c2c34`: the photoluminescence quantum yield (in Cc1ccccc1) was determined as 0.19. Consider `Clc1nc(Cl)nc(Nc2cc3ccc4cccc5ccc(c2)c3c45)n1`, for which the photoluminescence quantum yield is 0 (in CC#N), 0.06 (in CCCCOCCCC) and 0 (in CO). Under “in C1COCCO1”, `COC(=O)c1ccc(/C=C2\N=C(c3ccccc3)OC2=O)cc1` returned a photoluminescence quantum yield of 0. As for `COc1ccc(-c2cc3c(s2)c(C(C)=O)cc(=O)n3Cc2ccccc2)cc1`, the photoluminescence quantum yield reads like this: (in CC#N) 0.61; (in ClCCl) 0.99. For the compound `CC[Si](C#Cc1c2c(=O)c3ccccc3c2c(C#C[Si](CC)(CC)CC)c2c(=O)c3ccccc3c12)(CC)CC`, where the note is “in ClC(Cl)Cl”, the photoluminescence quantum yield worked out at 0.08. Where the note is “in ClCCl”, `c1ccc(C2=Nc3cccc4[n+]3[B-](c3ccccc3)(N2)NC(c2ccccc2)=N4)cc1` had a photoluminescence quantum yield of 0.13. `Cc1ccccc1C(=O)NN1C2=C(CC3=C1CC(C)(C)CC3=O)C(=O)CC(C)(C)C2`: the photoluminescence quantum yield was 0.26 (in C1CCOC1); 0.7 (in CC#N); 0.53 (in CC(C)=O); 0.5 (in CCCCCO); 0.3 (in CO); 0.64 (in ClC(Cl)Cl). Moreover, the photoluminescence quantum yield (in ClCCl) came out at 0.47.

Where the note is “in ClCCl”, `CN(C)c1ccc(C2=C3C=C(c4ccc(C=O)cc4)S[C@]34c3ccccc3[C@H]2c2ccccc24)cc1` returned a photoluminescence quantum yield of 0.54. Still for that read-out and setting: with `COc1ccc(C2=C(C)C3=C(c4c(-c5ccccn5)nc5ccccn45)c4c(C)cc(C)n4[B-](F)(F)[N+]3=C2C)cc1` the figure was 0.212. Consider `O=P1(c2ccccc2)c2ccc(N3c4ccccc4Oc4ccccc43)cc2-c2cc(N3c4ccccc4Oc4ccccc43)ccc21`, for which the photoluminescence quantum yield by setting is: (in Cc1ccccc1) 0.83; (in c1ccc2c(c1)c1ccccc1n2-c1ccc(-c2ccc(-n3c4ccccc4c4ccccc43)cc2)cc1) 0.8. The compound `COc1ccc(N(c2ccc(/C=C(\C)c3ccccc3)cc2)c2ccc(OC)cc2)cc1` showed a photoluminescence quantum yield (in Cc1ccccc1) of 0.41.

`COc1ccc(C#Cc2nc3ccccc3nc2-c2csc(OC)c2)cc1` yielded a photoluminescence quantum yield (in ClCCl) of 0.32. The same measure, in the same setting: with `CC1=C(C)c2cccc3c2c(cc2nc4ccccc4nc23)O1` the figure was 0.41.

As to `Brc1ccc(-c2nc3sc4ccccc4c3s2)cc1`, the photoluminescence quantum yield (in CS(C)=O) is 0.88. Same read-out and setting: with `O=c1oc2ccc(Cl)cc2cc1-c1cc2cc(Cl)ccc2o1` the figure was 0.2. Under “in ClCCl”, `CCCCCCOc1cc(C=C(C#N)C#N)c(OCCCCCC)cc1C=C(C#N)C#N` displayed a photoluminescence quantum yield of 0.868. Take `c1ccc(-[c+]2c3ccccc3sc3ccccc32)cc1`: the photoluminescence quantum yield (in CC#N) came out at 0.02.

For `CC1=C(C#Cc2ccccc2)C2=Cc3c(C#Cc4ccccc4)c(C)c(C)n3[B-](F)(F)[N+]2=C1C`, the photoluminescence quantum yield (in CC#N) turned out to be 1. As for `Cc1ccc2[nH]c(-c3ccc(-c4ccc(-c5ccc(-c6nc7cc(C)ccc7[nH]6)cc5)cc4)cc3)nc2c1`, the photoluminescence quantum yield (in CN(C)C=O) stood at 0.94. As to `Cc1ccc(N(c2ccc(C)cc2)c2c3ccccc3c(N(c3ccc(C)cc3)c3ccc(C)cc3)c3ccccc23)cc1`, the photoluminescence quantum yield (in Cc1ccccc1) was 0.95.

In the case of `Cc1csc2[n+]1[B-](F)(F)n1c(c3cccc4cccc1c43)=N2`, the photoluminescence quantum yield turned out to be 0.83 (in C1CCOC1); 0.78 (in CC#N); 0.99 (in CCCCCC); 0.99 (in Cc1ccccc1); 0.95 (in ClCCl). `O=c1c2ccccc2sc2ccccc12`: the photoluminescence quantum yield came to 0.012 (in C1CCOC1); 0.015 (in C1COCCO1); 0.066 (in CC#N); 0.024 (in CC(C)=O); 0.14 (in CC(C)O); 0.0078 (in CCCCOC(C)=O). Also, the photoluminescence quantum yield reads like this: (in CO) 0.25; (in OCCO) 0.41; (in c1ccccc1) 0.012. Take `CCCCCCCCCCCCN1C(=O)c2c(c3ccc4cc(-c5ccc(F)cc5)c(OC)cc4c3c3c2ccc2cc(-c4ccc(F)cc4)c(OC)cc23)C1=O`: where the note is “in ClCCl”, the photoluminescence quantum yield turned out to be 0.153. Consider `Cc1ccc(C2=C3C=CC(Nc4ccccc4)=[N+]3[B-](F)(F)n3c(Nc4ccccc4)ccc32)cc1`, for which the photoluminescence quantum yield (in CO) is 0.45. Compound `CCCCC(CC)Cn1c2cc(C#N)ccc2c2ccc(C#Cc3cc(C#Cc4ccc5c6ccc(C#N)cc6n(CC(CC)CCCC)c5c4)c4ccc5c(C#Cc6ccc7c8ccc(C#N)cc8n(CC(CC)CCCC)c7c6)cc(C#Cc6ccc7c8ccc(C#N)cc8n(CC(CC)CCCC)c7c6)c6ccc3c4c65)cc21` (configuration not stated) gave a photoluminescence quantum yield (in ClCCl) of 0.61. On to `CCN(CC)c1ccc2c(c1)oc(=O)c1c(C)nc3c(c(-c4ccccc4)nn3C)c12`, for which the photoluminescence quantum yield amounted to 0.699 (in C1CCCCC1); 0.627 (in CCOC(C)=O); 0.483 (in CN(C)C=O); 0.43 (in CO); 0.673 (in ClCCl).

Regarding `O=C1CCCC2=C1C(c1cccc(Cl)c1)c1c(c3ccccc3oc1=O)N2` (configuration not stated), the photoluminescence quantum yield (in CS(C)=O) was 0.6.

Where the note is “in ClC(Cl)Cl”, `CN(C)c1ccc(-c2cc(-c3cccs3)nc(-c3ccccc3)n2)cc1` displayed a photoluminescence quantum yield of 0.46. For the compound `c1ccc(N(c2ccccc2)c2ccc(-c3ccc(-c4nc(-c5ccccn5)n(-c5ccccc5)n4)cc3)cc2)cc1`, under “in ClCCl”, the photoluminescence quantum yield was determined as 0.392.

Consider `CCN(CC)c1ccc2c(-c3ccccc3C(=O)O)c3c([o+]c2c1)/C(=C/c1ccc(N(C)C)s1)CCC3`, for which the photoluminescence quantum yield (in ClCCl) came to 0.04. In the case of `N#Cc1c(N2CCCCC2)cc(-c2ccc(-c3ccccc3)s2)c2c1CCc1ccccc1-2`, the photoluminescence quantum yield (in C1CCOC1) stood at 0.23. For `Cc1ccccc1-c1c2ccc(=[N+]3CCCCC3)cc-2oc2cc(N3CCCCC3)ccc12`, the photoluminescence quantum yield is 0.28 (in CCO) and 0.89 (in ClCCl).

Take `C#CCn1c2ccccc2c2cc(/C=C/c3c(Cl)c(C)c4n3[B-](F)(F)[N+]3=C(C)C(Cl)=C(C)C3=C4c3ccc(I)cc3)ccc21`: the photoluminescence quantum yield came out at 0.43 (in CC#N), 0.33 (in CS(C)=O) and 0.62 (in ClC(Cl)Cl). As for `Cc1cc(C)c2nc3[nH]c(=O)[nH]c(=O)c3nc2c1`, for the setting “in CC#N”, the photoluminescence quantum yield was 0.043.

As for `N#CC(C#N)=Cc1ccc(-c2ccc(O)c(-c3nc4ccccc4s3)c2)o1`, the photoluminescence quantum yield reads like this: (in CCO) 0.0357; (in ClCCl) 0.016.

Where the note is “in ClCCl”, `C(=C\c1ccc(-c2ccncc2)cc1)/c1ccc(-c2ccncc2)cc1` displayed a photoluminescence quantum yield of 0.97.

`CCOC(=O)c1ccc(C2=C(c3ccccc3)c3oc4ccccc4[n+]3[B-](F)(F)O2)cc1`: for the setting “in C1CCOC1”, the photoluminescence quantum yield came to 0.011. Compound `COC(=O)c1nc(-c2ccccc2)oc1C` came in with a photoluminescence quantum yield (in C1CCCCC1) of 0.36; a photoluminescence quantum yield (in CC#N) of 0.38; a photoluminescence quantum yield (in CCO) of 0.47; a photoluminescence quantum yield (in CCOC(C)=O) of 0.44; a photoluminescence quantum yield (in O) of 0.34. In turn, `CCC1(CC)c2ccccc2-c2c1c1c(c3c2C(CC)(CC)c2cc(/C=C/c4cccs4)ccc2-3)C(CC)(CC)c2ccccc2-1` registered a photoluminescence quantum yield (in C1CCOC1) of 0.23. `Cc1cc(C)c(B(c2cc(C#Cc3ccccc3)sc2-c2sc(C#Cc3ccccc3)cc2P(=O)(c2ccccc2)c2ccccc2)c2c(C)cc(C)cc2C)c(C)c1`: the photoluminescence quantum yield (in CO) was 0.61. As to `CC1=[N+]2C(=C(c3ccc(C(=O)c4ccccc4)cc3)c3ccc(C)n3[B-]2(F)F)C=C1c1cc2n(c1)[B-](F)(F)[N+]1=CC=CC1=C2c1c(C)cc(C)cc1C`, the photoluminescence quantum yield is, setting by setting: (in C1CCCCC1) 0.47; (in CCOC(C)=O) 0.13. `Cc1nc2c(cc3c4c(cccc42)C(=O)OC3=O)o1` returned a photoluminescence quantum yield (in CCO) of 0.073.

The values above are taken from the Deep4Chem optical property database.
